Our source for the EC50 and Emax values is US10130615B2, “Benzomorphan analogs and the use thereof” (priority 2014, dated 2018).

Experiment [1] has as its target T1, μ-opioid receptor (Homo sapiens, UniProt P35372). Kind of experiment: biochemical. Details: purchased Perkin Elmer, Shelton, Conn; host or cells: HEK-293 or CHO. Conditions: HEK-293 or CHO cells; for EC50: read-out: GTPγS μ EC50; for Emax: relative to DAMGO, read-out: GTPγS μ Emax.
For experiment [2], the target named is T1, μ-opioid receptor. Kind of experiment: cell-based. Further details: purchased Perkin Elmer, Shelton, Conn. Particulars: U2OS cells; for EC50: read-out: β-Arr2 μ EC50; for Emax: read-out: β-Arr2 μ Emax.
The target in experiment [3] is T2, κ-opioid receptor (Homo sapiens, UniProt P41145). Kind of experiment: κ-opioid receptor GTPγS functional assay, U2OS cells. Format: biochemical. Details: expressed in transfected cells; host or cells: U-2 OS. Conditions: U2OS cells; for EC50: read-out: GTPγS κ EC50. The protocol:
(§1) Plates were incubated for 30 min at a temperature of about 25° C. with shaking.

Experiment [4] deals with T2, κ-opioid receptor. Kind of experiment: κ-opioid receptor β-Arr2 activity response, U2OS cells. Format: cell-based. Details: expressed in transfected cells; host or cells: U-2 OS. Particulars: U2OS cells; for EC50: read-out: β-Arr2 κ EC50.
The target in experiment [5] is T1, μ-opioid receptor. Kind of experiment: μ-opioid receptor GTPγS functional assay, U2OS cells. Conditions: for Emax: read-out: GTPγS μ Emax.
For experiment [6], the target named is T2, κ-opioid receptor. Kind of experiment: κ-opioid receptor [35S]GTPγS functional assay, HEK-293 or CHO cells. Format: biochemical. Further details: expressed in transfected cells; host or cells: HEK-293. Particulars: HEK-293 or CHO cells. The procedure: as §1
A general note: GTPγS is a poorly hydrolysed GTP analogue; its binding reports G protein activation.

T1 sequence (P35372 whole entry, species assumed): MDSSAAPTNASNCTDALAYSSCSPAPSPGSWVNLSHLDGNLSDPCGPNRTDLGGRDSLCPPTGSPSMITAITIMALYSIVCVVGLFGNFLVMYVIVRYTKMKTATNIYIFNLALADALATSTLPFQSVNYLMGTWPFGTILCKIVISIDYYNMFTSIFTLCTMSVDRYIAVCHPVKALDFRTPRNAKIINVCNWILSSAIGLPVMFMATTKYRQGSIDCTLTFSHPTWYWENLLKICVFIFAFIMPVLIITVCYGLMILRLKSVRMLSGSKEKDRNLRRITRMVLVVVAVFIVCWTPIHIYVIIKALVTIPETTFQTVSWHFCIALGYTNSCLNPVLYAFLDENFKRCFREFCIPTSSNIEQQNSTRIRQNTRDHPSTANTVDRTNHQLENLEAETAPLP
T2 sequence (P41145 whole entry): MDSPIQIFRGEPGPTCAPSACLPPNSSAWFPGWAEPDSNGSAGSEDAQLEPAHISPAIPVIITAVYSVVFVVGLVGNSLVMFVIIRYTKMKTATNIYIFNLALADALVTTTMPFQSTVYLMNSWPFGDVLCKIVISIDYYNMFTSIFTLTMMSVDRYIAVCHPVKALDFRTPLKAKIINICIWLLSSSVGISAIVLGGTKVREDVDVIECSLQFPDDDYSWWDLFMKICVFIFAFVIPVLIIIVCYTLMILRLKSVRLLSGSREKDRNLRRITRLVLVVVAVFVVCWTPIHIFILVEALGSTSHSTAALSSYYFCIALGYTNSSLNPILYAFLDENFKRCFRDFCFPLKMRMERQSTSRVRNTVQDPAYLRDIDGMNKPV

As usually defined, the EC50 is the midpoint of the concentration-response curve. The term Emax denotes the maximal effect, on the per cent scale that the assay sets. On to `C[C@H]1[C@H]2Cc3ccc(O)cc3[C@]1(CC(=O)N1CCC(N(C3CC3)S(=O)(=O)c3ccc(Cl)cc3)CC1)CCN2C` [Compound 61, 4-chloro-N-cyclopropyl-N-(1-(2-((2R,6S,11R)-8-hydroxy-3,11-dimethyl-2,3,4,5-tetrahydro-2,6-methano-benzo[d]azocin-6(1H)-yl)acetyl)-piperidin-4-yl)benzenesulfonamide], for which the half-maximal effective concentration (EC50) worked out at 283 ± 28.8 nM on μ-opioid receptor [1]; 649 ± 180 nM at μ-opioid receptor [2]; 45.4 ± 6.69 nM on κ-opioid receptor [3]; 7290 ± 2060 nM at κ-opioid receptor [4]; 146 ± 24.8 nM on μ-opioid receptor [5]. The Emax on μ-opioid receptor [1] amounted to 35.7 ± 1.2%; at μ-opioid receptor [2] it was 7.67 ± 0.73%; at κ-opioid receptor [3], 42.7 ± 2.03%; on κ-opioid receptor [4] it was 14.7 ± 1.33%; at μ-opioid receptor [5], 78.7 ± 0.33%.

In the case of `C[C@H]1[C@H]2Cc3ccc(O)cc3[C@]1(CCN1CCN(C(c3ccc(F)cc3)c3ccc(F)cc3)CC1)CCN2C` [Compound 8, (2R,6R,11R)-6-(2-(4-(bis(4-fluoro-phenyl)methyl)piperazin-1-yl)ethyl)-3,11-dimethyl-1,2,3,4,5,6-hexahydro-2,6-methanobenzo[d]azocin-8-ol], the concentration for a half-maximal effect (EC50) at μ-opioid receptor [1] was 796 ± 72.2 nM; on μ-opioid receptor [2] it was 4710 ± 227 nM; at μ-opioid receptor [5], 72.7 ± 4.92 nM. Moreover, the Emax at μ-opioid receptor [1] was 47 ± 1.53%; on μ-opioid receptor [2] it was 70.7 ± 6.98%; on μ-opioid receptor [5], 100 ± 3.06%.

Consider `COc1ccc2c(c1)[C@]1(CCOCc3ccccc3)CCN(C)[C@H](C2)[C@@H]1C` [Compound 48, (2R,6S,11R)-6-(2-(benzyloxy)ethyl)-8-methoxy-3,11-dimethyl-1,2,3,4,5,6-hexahydro-2,6-methanobenzo[d]azocine], for which the EC50 on μ-opioid receptor [1] came out at 2240 ± 190 nM; at μ-opioid receptor [2] it was 4380 ± 627 nM; at κ-opioid receptor [3], 104 ± 15.8 nM; at κ-opioid receptor [4] it was 16300 ± 7600 nM; at μ-opioid receptor [5], 313 ± 28 nM. For the same compound, the Emax was 53.1 ± 4.36% on μ-opioid receptor [1]; 27.7 ± 0.88% on μ-opioid receptor [2]; 108 ± 4.51% at κ-opioid receptor [3]; 64.3 ± 9.39% at κ-opioid receptor [4]; 97 ± 2.08% at μ-opioid receptor [5].

Turning to `C[C@H]1[C@H]2Cc3ccc(O)cc3[C@]1(CCNS(=O)(=O)C1CC1)CCN2CC1CC1` [Compound 6, N-(2-((2R,6S,11R)-3-(cyclopropyl-methyl)-8-hydroxy-11-methyl-2,3,4,5-tetrahydro-2,6-methanobenzo[d]azocin-6(1H)-yl)ethyl)-cyclopropanesulfonamide], the Emax is -0.33 ± 0.67% at μ-opioid receptor [1], -0.33 ± 0.67% at μ-opioid receptor [2], 107 ± 2.65% on κ-opioid receptor [3] and 30.7 ± 0.88% at μ-opioid receptor [5]. Also, the 50% effective concentration (EC50) at κ-opioid receptor [3] was 0.072 ± 0.013 nM; on μ-opioid receptor [5] it was 0.88 ± 0.095 nM.

For `CCOC(=O)c1ccc(NC(=O)NCC[C@]23CCN(CC4CC4)[C@H](Cc4ccc(OC)cc42)[C@@H]3C)cc1` [Compound 1, Ethyl 4-(3-(2-((2R,6R,11R)-3-(cyclopropylmethyl)-8-methoxy-11-methyl-2,3,4,5-tetrahydro-2,6-methanobenzo[d]azocin-6(1H)-yl)ethyl)ureido)benzoate], the concentration for a half-maximal effect (EC50) turned out to be 4.21 ± 0.67 nM at μ-opioid receptor [1]; 33.4 ± 2.26 nM on κ-opioid receptor [6] (read-out: GTPγS κ EC50); 5.79 ± 0.56 nM at κ-opioid receptor [3]; 63.8 ± 7.23 nM at κ-opioid receptor [4]; 164 ± 31.6 nM at μ-opioid receptor [5]. For the same compound, the Emax turned out to be 27.8 ± 0.85% on μ-opioid receptor [1]; 78.3 ± 0.91% at κ-opioid receptor [6] (relative to U69,593); 25.5% at μ-opioid receptor [2]; 103 ± 3.53% on κ-opioid receptor [3]; 44.2 ± 4.05% at κ-opioid receptor [4]; 62 ± 2.08% at μ-opioid receptor [5].

As for `C[C@H]1[C@H]2Cc3ccc(O)cc3[C@]1(CCOc1cncc(C(=O)O)c1)CCN2C` [Compound 52, 5-(2-((2R,6S,11R)-8-hydroxy-3,11-dimethyl-2,3,4,5-tetrahydro-2,6-methanobenzo[d]azocin-6(1H)-yl)ethoxy)nicotinic acid], the EC50 at μ-opioid receptor [1] is 320 ± 46.9 nM; on μ-opioid receptor [2], 403 ± 110 nM; on κ-opioid receptor [3], 434 ± 39.1 nM; on μ-opioid receptor [5], 68.1 ± 6.57 nM. Besides, the Emax came out at 35 ± 1.53% at μ-opioid receptor [1]; 6.77 ± 1.13% at μ-opioid receptor [2]; 99 ± 1.73% on κ-opioid receptor [3]; 1% at κ-opioid receptor [4]; 89 ± 4% at μ-opioid receptor [5].

Consider `COc1ccc2c(c1)[C@]1(CCNC(=O)[C@H](C)NC(C)=O)CCN(CC3CC3)[C@H](C2)[C@@H]1C` [Compound 4, (S)-2-acetamido-N-(2-((2R,6R,11R)-3-(cyclopropylmethyl)-8-methoxy-11-methyl-2,3,4,5-tetrahydro-2,6-methanobenzo[d]azocin-6(1H)-yl)ethyl)propanamide], for which the Emax stood at 0% at μ-opioid receptor [1]; 1.3 ± 0.77% at μ-opioid receptor [2]; 97 ± 5.29% at κ-opioid receptor [3]; 59.3 ± 4.06% at κ-opioid receptor [4]; 80.2 ± 3.3% on μ-opioid receptor [5]. Besides, the EC50 was found to be 38.2 ± 4.89 nM on κ-opioid receptor [3], 403 ± 59.9 nM on κ-opioid receptor [4] and 522 ± 60.1 nM on μ-opioid receptor [5].

As to `C[C@H]1[C@H]2Cc3ccc(O)cc3[C@]1(CCNS(C)(=O)=O)CCN2CC1CC1` [Compound 3, N-(2-((2R,6S,11R)-3-(cyclopropyl-methyl)-8-hydroxy-11-methyl-2,3,4,5-tetrahydro-2,6-methanobenzo[d]azocin-6(1H)-yl)ethyl)methanesulfonamide], the Emax on μ-opioid receptor [2] was 0%; on κ-opioid receptor [3], 104 ± 2.52%; on κ-opioid receptor [4], -0.33 ± 0.67%; at μ-opioid receptor [5], 16.7 ± 0.33%. Also, the EC50 at κ-opioid receptor [3] was determined as 0.32 ± 0.031 nM; at μ-opioid receptor [5] it was 0.85 ± 0.11 nM.

For the compound `C[C@H]1[C@H]2Cc3ccc(O)cc3[C@]1(CCN1CCC(N(C3CC3)S(=O)(=O)c3ccc(Cl)cc3)CC1)CCN2C` [Compound 58, 4-chloro-N-cyclopropyl-N-(1-(2-((2R,6R,11R)-8-hydroxy-3,11-dimethyl-2,3,4,5-tetrahydro-2,6-methanobenzo-[d]azocin-6(1H)-yl)ethyl)piperidin-4-yl)-benzenesulfonamide], the EC50 at μ-opioid receptor [1] worked out at 179 ± 12.7 nM; at μ-opioid receptor [2], 2140 ± 586 nM; at κ-opioid receptor [3], 11 ± 1.59 nM; at κ-opioid receptor [4], 8900 ± 1620 nM; at μ-opioid receptor [5] it was 20.3 ± 1.82 nM. The Emax at μ-opioid receptor [1] amounted to 53.3 ± 2.96%; at μ-opioid receptor [2], 77.7 ± 7.06%; on κ-opioid receptor [3], 60 ± 1%; on κ-opioid receptor [4], 80.3 ± 7.75%; at μ-opioid receptor [5], 98 ± 2%.

On to `C[C@H]1[C@H]2Cc3ccc(O)cc3[C@]1(CC(=O)NCCc1ccc(S(N)(=O)=O)cc1)CCN2C` [Compound 62, 2-((2R,6S,11R)-8-hydroxy-3,11-dimethyl-2,3,4,5-tetrahydro-2,6-methanobenzo[d]azocin-6(1H)-yl)-N-(4-sulfamoylphenethyl)acetamide], for which the 50% effective concentration (EC50) at μ-opioid receptor [1] came out at 538 ± 22.9 nM; on κ-opioid receptor [3], 1120 ± 53.4 nM; on μ-opioid receptor [5] it was 172 ± 18.7 nM. The Emax on μ-opioid receptor [1] was 17 ± 1.53%; on μ-opioid receptor [2] it was -1%; on κ-opioid receptor [3], 35.7 ± 1.67%; at μ-opioid receptor [5] it was 49.7 ± 0.88%.

In the case of `COc1ccc2c(c1)[C@]1(CCNC(=O)[C@@H]3CCCN3C(C)=O)CCN(CC3CC3)[C@H](C2)[C@@H]1C` [Compound 5, (S)-1-acetyl-N-(2-((2R,6R,11R)-3-(cyclopropylmethyl)-8-methoxy-11-methyl-2,3,4,5-tetrahydro-2,6-methanobenzo[d]azocin-6(1H)-yl)ethyl)pyrrolidine-2-carboxamide], the EC50 on μ-opioid receptor [1] worked out at 468 ± 122 nM; at κ-opioid receptor [3], 63.3 ± 10.2 nM; on κ-opioid receptor [4] it was 407 ± 65.5 nM; on μ-opioid receptor [5], 629 ± 16.8 nM. Also, the Emax was 16.3 ± 1.44% on μ-opioid receptor [1]; -1% at μ-opioid receptor [2]; 100 ± 4.58% at κ-opioid receptor [3]; 58.7 ± 5.93% on κ-opioid receptor [4]; 75.2 ± 1.55% on μ-opioid receptor [5].

On to `C[C@H]1[C@H]2Cc3ccc(O)cc3[C@]1(CCNCCc1ccc(S(N)(=O)=O)cc1)CCN2C` [Compound 59, 4-(2-((2-((2R,6R,11R)-8-hydroxy-3,11-dimethyl-2,3,4,5-tetrahydro-2,6-methanobenzo[d]azocin-6(1H)-yl)ethyl)amino)ethyl)benzenesulfonamide], for which the figures for the EC50 at μ-opioid receptor [1], at κ-opioid receptor [3] and on μ-opioid receptor [5] were 369 ± 50.2 nM, 61.2 ± 10 nM and 85.6 ± 9.67 nM, respectively. Also, the Emax is 38 ± 4.18% at μ-opioid receptor [1]; -1% on μ-opioid receptor [2]; 112 ± 7.54% at κ-opioid receptor [3]; 1% at κ-opioid receptor [4]; 74 ± 3.51% at μ-opioid receptor [5].
